Experimental data taken from patent US7772198B2, “CFTR channel modulators” (Centre National de la Recherche Scientifique, priority 2003, dated 2010).
Like-named read-outs stand apart in the source and are kept apart here.

Key:
[1] = molecular target: T1, G551D-CFTR (CHO-G551D cells) (Homo sapiens, UniProt P13569, G551D); experiment: 125I iodide efflux, CHO cells expressing G551D mutated CFTR (CHO-G551D); assay type: cell-based; details: for IC50: 10 μM Fsk + 30 μM genistein; for effect on G551D mutated receptors: summary of Table II
T1 construct: expressed in transfected cells; host or cells: CHO (Chinese Hamster Ovary) cells, stably transfected

[2] = pKa evaluation in aqueous solution; assay type: physicochemical
Description: As an example, the pKa of this compound was evaluated at 4. This means that in an aqueous solution with a pH of 7, this compound is mainly in zwitterionic form, as in the case of highly diluted solutions such as those used for biological tests.

[3] = molecular target: wild-type CFTR protein (Calu-3 cells) (Homo sapiens, UniProt P13569); experiment: iodide efflux, Calu-3 human lung cells naturally expressing wild-type CFTR
[4] = molecular target: T2, wild-type CFTR receptor (CHO-WT cells) (Homo sapiens, UniProt P13569); experiment: 125I iodide efflux, CHO cells overexpressing wild-type CFTR (CHO-WT); assay type: cell-based; details: for IC50: 5 μM Fsk; for Effect: + activator, − inhibitor, compound 1 μM, 100% = activation with 1 μM forskolin; for EC50: activators, 1 μM forskolin; for effect on wild-type receptors: summary of Table II
T2 construct: expressed in transfected cells; host or cells: CHO (Chinese Hamster Ovary) cells, stably transfected

[5] = molecular target: CFTR channel (Homo sapiens, UniProt P13569); details: read-out: IC50, concentration to inhibit 50% of the activity of the CFTR channel; cited from earlier work
[6] = molecular target: mutated F508-CFTR (CF15 cells) (Homo sapiens, UniProt P13569, DEL508-508); experiment: iodide efflux, CF15 human nasal epithelial cells expressing mutated F508-CFTR; details: results not shown
[7] = system: mice; details: at 7 days, 10 mg/kg injection; cited from earlier work
[8] = system: diarrhoea caused by the cholera toxin; details: mouse, in vivo; cited from earlier work
[9] = 1 μM compound added to 1 μM Fsk
[10] = 1 μM compound added to 10 μM Fsk + 30 μM genistein
[11] = 1 μM compound added to 5 μM Fsk

T1 sequence (P13569 whole entry G551D): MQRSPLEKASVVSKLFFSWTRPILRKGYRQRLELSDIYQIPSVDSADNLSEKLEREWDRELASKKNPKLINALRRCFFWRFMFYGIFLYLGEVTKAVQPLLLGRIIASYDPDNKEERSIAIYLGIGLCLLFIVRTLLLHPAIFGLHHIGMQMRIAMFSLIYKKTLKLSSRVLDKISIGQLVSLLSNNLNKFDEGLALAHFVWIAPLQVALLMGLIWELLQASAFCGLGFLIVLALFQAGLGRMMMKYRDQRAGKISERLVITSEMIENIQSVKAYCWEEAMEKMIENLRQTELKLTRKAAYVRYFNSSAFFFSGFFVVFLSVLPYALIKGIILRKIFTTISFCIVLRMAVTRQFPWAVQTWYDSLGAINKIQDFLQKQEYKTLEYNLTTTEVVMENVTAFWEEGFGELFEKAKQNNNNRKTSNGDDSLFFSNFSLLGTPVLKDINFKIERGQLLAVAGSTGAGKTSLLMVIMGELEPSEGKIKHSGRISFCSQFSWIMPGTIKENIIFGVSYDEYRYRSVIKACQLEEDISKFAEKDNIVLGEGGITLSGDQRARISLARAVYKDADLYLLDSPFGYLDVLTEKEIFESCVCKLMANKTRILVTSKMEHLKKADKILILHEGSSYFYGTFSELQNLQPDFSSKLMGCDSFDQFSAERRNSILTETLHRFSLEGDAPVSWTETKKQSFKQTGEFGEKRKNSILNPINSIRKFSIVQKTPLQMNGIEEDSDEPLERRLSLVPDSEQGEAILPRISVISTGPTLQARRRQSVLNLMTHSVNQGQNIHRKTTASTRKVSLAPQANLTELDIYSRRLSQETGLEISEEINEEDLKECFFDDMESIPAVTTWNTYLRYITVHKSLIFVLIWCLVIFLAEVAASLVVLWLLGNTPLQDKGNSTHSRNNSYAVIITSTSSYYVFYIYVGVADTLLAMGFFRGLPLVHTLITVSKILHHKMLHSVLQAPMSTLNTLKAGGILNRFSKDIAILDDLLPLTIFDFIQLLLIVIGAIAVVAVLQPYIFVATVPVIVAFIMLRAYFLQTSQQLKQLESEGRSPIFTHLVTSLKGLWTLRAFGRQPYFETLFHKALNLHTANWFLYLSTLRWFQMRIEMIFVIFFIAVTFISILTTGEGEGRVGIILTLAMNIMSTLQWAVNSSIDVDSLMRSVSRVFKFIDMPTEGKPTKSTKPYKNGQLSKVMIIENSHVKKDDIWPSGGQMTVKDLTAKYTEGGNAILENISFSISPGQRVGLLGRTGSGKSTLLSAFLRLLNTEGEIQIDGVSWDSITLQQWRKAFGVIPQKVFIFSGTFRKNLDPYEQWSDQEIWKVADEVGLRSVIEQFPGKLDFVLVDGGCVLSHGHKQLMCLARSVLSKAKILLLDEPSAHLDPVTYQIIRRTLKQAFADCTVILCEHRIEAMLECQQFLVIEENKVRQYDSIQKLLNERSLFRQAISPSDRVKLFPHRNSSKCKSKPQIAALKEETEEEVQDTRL
T2 sequence (P13569 whole entry): as the sequence (P13569 whole entry G551D) above, with D551G counted along it
Chain of wild-type CFTR protein (Calu-3 cells) (P13569 whole entry): as the sequence (P13569 whole entry G551D) above, with D551G counted along it
Chain of CFTR channel (P13569 whole entry): as the sequence (P13569 whole entry G551D) above, with D551G counted along it
Chain of mutated F508-CFTR (CF15 cells) (P13569 with tags, fused parts or gaps DEL508-508): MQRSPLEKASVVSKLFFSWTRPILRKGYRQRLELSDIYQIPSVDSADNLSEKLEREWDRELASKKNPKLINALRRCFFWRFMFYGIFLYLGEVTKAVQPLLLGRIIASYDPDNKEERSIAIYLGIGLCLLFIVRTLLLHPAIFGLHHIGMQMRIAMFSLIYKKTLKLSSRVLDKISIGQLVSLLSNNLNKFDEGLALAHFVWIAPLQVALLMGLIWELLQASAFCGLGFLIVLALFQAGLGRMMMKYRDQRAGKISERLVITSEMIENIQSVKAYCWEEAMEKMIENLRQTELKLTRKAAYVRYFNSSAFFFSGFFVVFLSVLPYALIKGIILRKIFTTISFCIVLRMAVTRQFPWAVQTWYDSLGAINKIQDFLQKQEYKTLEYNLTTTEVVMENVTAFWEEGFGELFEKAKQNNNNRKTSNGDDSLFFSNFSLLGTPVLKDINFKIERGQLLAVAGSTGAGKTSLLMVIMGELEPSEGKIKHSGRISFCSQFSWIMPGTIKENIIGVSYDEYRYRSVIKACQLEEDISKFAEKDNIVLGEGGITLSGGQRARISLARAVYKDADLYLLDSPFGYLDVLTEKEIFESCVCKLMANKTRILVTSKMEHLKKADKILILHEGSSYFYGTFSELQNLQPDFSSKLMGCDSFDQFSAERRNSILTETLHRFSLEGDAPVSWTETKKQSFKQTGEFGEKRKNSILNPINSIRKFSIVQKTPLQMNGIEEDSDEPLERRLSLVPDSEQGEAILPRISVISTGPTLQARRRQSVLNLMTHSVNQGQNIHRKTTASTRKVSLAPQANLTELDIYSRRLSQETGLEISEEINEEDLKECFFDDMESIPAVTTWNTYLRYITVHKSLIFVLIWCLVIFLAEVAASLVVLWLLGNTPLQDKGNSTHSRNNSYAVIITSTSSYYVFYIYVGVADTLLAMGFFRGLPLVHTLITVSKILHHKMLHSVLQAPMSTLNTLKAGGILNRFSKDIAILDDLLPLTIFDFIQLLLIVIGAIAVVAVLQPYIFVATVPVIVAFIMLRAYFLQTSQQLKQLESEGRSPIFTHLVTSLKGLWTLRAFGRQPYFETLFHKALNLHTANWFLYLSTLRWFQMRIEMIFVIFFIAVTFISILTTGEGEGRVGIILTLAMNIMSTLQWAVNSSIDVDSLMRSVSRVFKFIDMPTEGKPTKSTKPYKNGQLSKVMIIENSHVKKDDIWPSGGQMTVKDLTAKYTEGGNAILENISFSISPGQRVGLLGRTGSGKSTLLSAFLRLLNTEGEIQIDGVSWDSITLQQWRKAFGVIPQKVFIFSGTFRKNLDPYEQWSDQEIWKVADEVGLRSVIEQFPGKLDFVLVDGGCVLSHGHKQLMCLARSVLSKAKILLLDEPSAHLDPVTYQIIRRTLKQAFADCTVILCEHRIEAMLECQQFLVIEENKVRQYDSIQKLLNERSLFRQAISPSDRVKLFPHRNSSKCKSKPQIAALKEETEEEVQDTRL

## Cc1nc2cccc[n+]2c(C)c1[O-] [Compound 6, 2-aminopyridine Derivative]
[1]
  IC50: 90 nM
[2]; read-out: pKa
  pKa: 4
[3]
  IC50: 5 nM
[4]
  IC50: 5 nM

## CCCN1C=CC2=N[C@](C)(C(=O)O)[C@@H](O)[C@@](C)(O)N2C1=O [Compound 2a]
[4]
  IC50: 2 nM

## CCCN1C=CC2=NC(C)(C(=O)O)C(O)C(C)(O)N2C1=O (centres unmarked) [Compound 2, 1-propylcytosine Adducts]
[1]
  IC50: 154 nM
[3]
  IC50: 2 nM
[4]
  IC50: 2 nM

## C[N+](C)(C)CC(=O)O [Betaine, reference compound]
[4]
  IC50: 96000 nM

## CCCn1cnc2c1N=CN1C2=N[C@](C)(C(=O)O)[C@@H](O)[C@@]1(C)O (racemic) [Compound 9a]
[3]
  EC50: 2000 nM
[4]
  Effect: + (In case of a significant increase, the compound was listed as an activator)
  EC50: 2000 nM

## O=C(O)c1nn(Cc2ccc(Cl)cc2Cl)c2ccccc12 [lonidamine]
[5]
  IC50: 58000 nM

## CCC1(C(=O)O)N=C2C=CC=CN2C(O)(CC)C1O (mixture of isomers) [Compound 11]
[4]
  IC50: 18000 nM

## C[n+]1cn([C@@H]2O[C@H](CO)[C@@H](O)[C@H]2O)c2nc(N)nc([O-])c21 [Compound 8, 7-methylguanosine]
[1]
  IC50: 15000 nM
[3]
  IC50: 11000 nM
[4]
  IC50: 3500 nM

## CCCN1C=CC2=N[C@](C)(C(=O)O)[C@H](O)[C@@](C)(O)N2C1=O [Compound 2b]
[4]
  IC50: 1.5 nM

## CCCn1cnc2c1N=CN1C2=N[C@](C)(C(=O)O)[C@H](O)[C@@]1(C)O (racemic) [Compound 9b]
[4]
  Effect: + (In case of a significant increase, the compound was listed as an activator)
  EC50: 3000 nM

## C[C@]1(C(=O)O)N=C2c3nc[nH]c3N=CN2[C@](C)(O)[C@H]1O (single isomer, unassigned) [Compound 5a]
[4]
  IC50: 10000 nM

## CC1(C(=O)O)N=C2C=CC=CN2C(C)(O)C1O (centres unmarked)
[2]; aqueous solution, aqueous solution at 25° C., read-out: pKa, carboxylic acid function
  pKa: ~2
[2]; aqueous solution, aqueous solution at 25° C., read-out: pKa, imine function
  pKa: ~10

## CCCn1cnc2c1N=CN1C2=NC(C)(C(=O)O)C(O)C1(C)O (mixture of isomers) [Compound 9, 9-propyladenine Adducts]
[6]
  activation of ΔF508 mutated receptor: can activate
[1]; [9]
  effect on activation of mutated CFTR (CHO-G551D): no effect
[1]; [10]
  effect on activation of mutated CFTR (CHO-G551D): activation
[1]
  effect on G551D mutated receptors: unable to activate
[4]; [9]
  effect on activation of wild-type CFTR (CHO-WT): activation
[4]; [10]
  effect on activation of wild-type CFTR (CHO-WT): activation
[4]
  Effect: + (In case of a significant increase, the compound was listed as an activator)
  EC50: 2000 nM
  effect on wild-type receptors: activator effect

## C=CCn1cnc2c1N=CN1C2=NC(C)(C(=O)O)C(O)C1(C)O (mixture of isomers) [Compound 10, 9-allyladenine Adducts]
[4]
  Effect: + (In case of a significant increase, the compound was listed as an activator)
  EC50: 7500 nM

## O=C(O)c1ccc(/C=C2\SC(=S)N(c3cccc(C(F)(F)F)c3)C2=O)cc1 [CFTRinh-172]
[7]
  toxicity in mice: absence of toxicity
[5]
  IC50: 200 nM
[8]
  reduction of diarrhoea caused by the cholera toxin: more than 90%

## C[C@]1(C(=O)O)N=C2c3nc[nH]c3N=CN2[C@](C)(O)[C@H]1O (single isomer, unassigned) [Compound 5b]
[4]
  IC50: 3000 nM

## Cc1nc2cccc[n+]2c(C)c1O [6 (chlorhydrate)]
[4]
  IC50: 7 nM

## CC1(C(=O)O)N=C2C(O)=CC=CN2C(C)(O)C1O (mixture of isomers) [Compound 3, 2-amino-3-hydroxypyridine Adducts]
[1]
  IC50: 36000 nM
[3]
  IC50: 11000 nM
[4]
  IC50: 4000 nM

## CC1(C(=O)O)N=C2c3ncn([C@H]4CC(O)[C@@H](CO)O4)c3N=CN2C(C)(O)C1O (stereo in doubt) [Compound 1, 2′-deoxyadenosine Adducts]
[1]; [9]
  effect on activation of mutated CFTR (CHO-G551D): no effect
[1]; [11]
  effect on activation of mutated CFTR (CHO-G551D): no effect
[1]; [10]
  effect on activation of mutated CFTR (CHO-G551D): inhibition
[1]
  IC50: 43 nM
  effect on G551D mutated receptors: effectively antagonises the action of the forskolin and genistein activators
[3]
  IC50: 0.093 nM
[4]; [9]
  effect on activation of wild-type CFTR (CHO-WT): inhibition
[4]; [11]
  effect on activation of wild-type CFTR (CHO-WT): inhibition
[4]; [10]
  effect on activation of wild-type CFTR (CHO-WT): inhibition
[4]
  IC50: 0.071 nM
  effect on wild-type receptors: effectively antagonises the action of the forskolin and genistein activators

## CC1(C(=O)O)N=C2c3nc[nH]c3N=CN2C(C)(O)C1O (centres unmarked) [Compound 5, Adenine Adducts]
[1]
  IC50: 110000 nM
[3]
  IC50: 12000 nM
[4]
  IC50: 6000 nM
